“Also recorded” adds a separate entry of the source.
Experiments:
[1] = system: SIHA squamous carcinoma cells; assay: XTT dye binding cytotoxicity assay, SIHA; format: cell-based; conditions: Homo sapiens, SiHa, 72 h
Description: (§1) All cell lines described herein were obtained from the ATCC and maintained in media formulations as recommended by the supplier. The cell lines were tested for mycoplasma contamination prior to incubation at 37° C. in 5% carbon dioxide. Normal human dermal fibroblasts, peripheral blood lymphoblasts and mammary epithelial cells were obtained from Clonogenic Cor., San Diego, Calif. and were maintained under the above incubation conditions in special media provided by the supplier.
(§2) Antiproliferative activities of the onium salts were determined using the XTT dye binding assay. Cells were harvested with trypsin/EDTA (Irvine Scientific), washed, resuspended in the appropriate medium, and counted in a hemocytometer using Trypan Blue to determine viability. Then 10^4 cells/well were added to 96 well microtiter plates and incubated for 24 hours before addition of drug at concentrations in the range of 10^-4 to 10^-13 molar by direct addition from DMSO solutions. After 72 hours, XTT binding dye was added and incubation was continued for 4 hours. The inhibition of cell proliferation was quantified using a Molecular Devices Microplate Reader. The absorbance of XTT was measured at […]. The concentration of drug which inhibited growth of cells by 50% was calculated from duplicated determinations.

intact Molt-4 cells = assay: Competition binding of tritiated compounds to intact Molt-4 cells; parameters: species or system human; conditions: calculated from slopes of linear portions of curves in FIG. 3; read-out: binding constant
Description: The competition by nonradioactive taxol or c-2'-MPA-taxol for the binding of 1×10^-9 M tritiated compounds by intact Molt-4 cells is illustrated in FIG. 3. Tritiated taxol (Moravek Corp.) was treated with 2-fluoropyridiunium tosylate according to the method of Nicolaou et al. to yield the C-2'-MPT-^3 H-taxol. (Angew. Chem., Int. Ed. 1994: vol. 34, pp. 1583-1587.) Six well plates were incubated with 10^6 Molt-4 cells in 50 mM phosphate buffered saline (PBS) or PRPMI media to which 10^-9 M of the radiolabeled taxol or taxol onium salt was added together with increasing concentrations of nonradiolabeled compound. After 30 minutes, the cells were centrifuged, washed with PBS and 1% SDS was added. […] Alternatively, the cells may be lysed by sonication.

[2] = system: M-24 metastatic melanoma cells; assay: XTT dye binding cytotoxicity assay, M-24; format: cell-based; conditions: Homo sapiens, M24, 72 h
Description: as §1, §2

U-2511 CNS cancer cells = assay: XTT dye binding cytotoxicity assay, U-2511; format: cell-based; conditions: Homo sapiens, 72 h
Description: as §1, §2

[3] = system: 786-0 renal cell carcinoma cells; assay: XTT dye binding cytotoxicity assay, 786-0; format: cell-based; conditions: Homo sapiens, 786-0, 72 h
Description: as §1, §2

[4] = system: A-549 lung carcinoma cells; assay: XTT dye binding cytotoxicity assay, A-549; format: cell-based; conditions: Homo sapiens, A549, 72 h
Description: as §1, §2

[5] = system: BT-549 breast carcinoma cells; assay: XTT dye binding cytotoxicity assay, BT-549; format: cell-based; conditions: Homo sapiens, BT-549, 72 h
Description: as §1, §2

[6] = system: CHO Chinese hamster ovary cells; assay: XTT dye binding cytotoxicity assay, CHO; format: cell-based; conditions: Cricetulus griseus, 72 h
Description: as §1, §2

[7] = system: Molt-4 T-cell leukemia cells; assay: XTT dye binding cytotoxicity assay, Molt-4; format: cell-based; conditions: Homo sapiens, MOLT-4, 72 h
Description: as §1, §2

human tumor xenografts = assay: In vivo antitumor effect (human tumor xenografts in nude mice)
[8] = Plasma stability and prodrug reversion (ethyl acetate extraction, HPLC)
[9] = cited from earlier work
SK-Mel-28 melanoma cells = assay: XTT dye binding cytotoxicity assay, SK-Mel-28; format: cell-based; conditions: Homo sapiens, SK-MEL-28, 72 h
Description: as §1, §2

[10] = system: Capan 1 pancreas cancer cells; assay: XTT dye binding cytotoxicity assay, Capan 1; format: cell-based; conditions: Homo sapiens, CAPAN-1, 72 h
Description: as §1, §2

[11] = system: HT-29 colon carcinoma cells; assay: XTT dye binding cytotoxicity assay, HT-29; format: cell-based; conditions: Homo sapiens, HT-29, 72 h
Description: as §1, §2

[12] = cited from earlier work; remark: listed apart in the source
L-1210 leukemia cells = assay: XTT dye binding cytotoxicity assay, L-1210; format: cell-based, mouse; conditions: Mus musculus, L1210, 72 h
Description: as §1, §2

[13] = Comparative toxicities (lethality) in mice
[14] = system: RPMI-7666 blood lymphoblasts; assay: XTT dye binding cytotoxicity assay, RPMI-7666; format: cell-based; conditions: Homo sapiens, 72 h
Description: as §1, §2

[15] = In vivo elimination in BALB/C mice; conditions: 24 hours after injection
Description: C-2'-MPA-Taxol (1 mM in 0.9% saline solution, 400 μL) was injected along with tritiated taxol at 32000 cpm into normal BALB/C mice (4 mice each) housed in metabolic cages and the urine and feces were measured periodically in a scintillation counter using Achillea scintillation fluid.
The antitumor activity of the onium salts of taxol were assessed in nude mice bearing tumors of human A-549 lung adenocarcinomas, Ovcar-3 ovarian carcinoma, and PC-3 prostate carcinoma cells. […] FIG. 5 illustrates antiproliferation results for 2'-MPA-3-thiophene-taxol (4) and 2' MPA taxol (2) for the Ovcar-3 human tumor xenograft. […] FIG. 6, summarizes the results for a PC-3, prostate tumor model study. Taxol was compared with both the 2'- and 7-substituted oxonium salts. […] Tritiated taxol and 2' MPA-taxol were used in drug elimination experiments in normal BALB/C mice. In both groups of mice of four animals each, only 4-5% of the administered radioactivity was measured in the combined urine and feces 24 hours after injection.

[16] = Toxicity and survival in vivo (tumor bearing nude mice)
[17] = system: UCLA-P3 lung carcinoma cells; assay: XTT dye binding cytotoxicity assay, UCLA-P3; format: cell-based; conditions: Homo sapiens, UCLA P-3, 72 h
Description: as §1, §2

[18] = system: HMEC mammary epithelial cells; assay: XTT dye binding cytotoxicity assay, HMEC; format: cell-based; conditions: Homo sapiens, 72 h
Description: as §1, §2

NHDF dermal fibroblast = assay: XTT dye binding cytotoxicity assay, NHDF; format: cell-based; conditions: Homo sapiens, 72 h
Description: as §1, §2

[19] = system: PC-3 prostate carcinoma tumor xenograft; assay: PC-3 prostate tumor xenograft in nude mice
Description: Athymic nude mice were purchased from Harlan-Sprague-Dawley. The animals were housed in microisolated cases under positive air pressure and all manipulations and drug treatments were performed in a laminar flow cabinet. Tumor cells were grown under the above tissue culture conditions. Cell suspensions in RPMI medium were injected S./C. Treatment was started one day after inoculation by i.p. injection of 400 μl drug solutions. Tumors were measured 3 times weekly in two dimensions, using calipers and tumor volume as calculated using the formula (V=w^2 ×L×(3.142).
The tumor model was generated from an ATTC PC-3 prostate carcinoma cell line that was maintained under standard cell proliferation conditions, viz. 37° C., 5% carbon dioxide in sterile air. Each cohort was comprised of eight randomly chosen female athymic nude mice, for a total population size of twenty four. Hemocytometer counted cells, suspended in Hanks mediun (Gibco, Grand Island N.Y.) were implanted S.C. (10^6 cells in 0.4 mL per mouse). Solid tumor growth was measured on each third day. Equimolar amounts of the test compounds (1.0 mM, 400 μL) were injected i.p. on days 1, 3, 5, 7, 9, and 11 using the following media:
(.smallcircle.): Control, 5% dextrose in 5× distilled water (5 DW)
(Δ): Taxol (18.0 mg/kg of animal weight or approximately 1.260 mg/m^2) suspended in Cremaphor/D5W
Inferences about efficacy were drawn by ANOVA followed by protected t-test. […] Data shown as mean value with standard error.

[20] = system: HL-60 promyelocytic leukemia cells; assay: XTT dye binding cytotoxicity assay, HL-60; format: cell-based; conditions: Homo sapiens, HL-60, 72 h
Description: as §1, §2

[21] = cited from earlier work; remark: listed apart in the source
tubulin = assay: Tubulin polymerization-depolymerization (microtubule assembly-disassembly) assay; format: biochemical, calf; conditions: CaCl2; 10^-6 M drug; 37° C.; in words; listed as taxol
[22] = system: OVCAR-3 ovarian carcinoma cells; assay: XTT dye binding cytotoxicity assay, OVCAR-3; format: cell-based; conditions: Homo sapiens, OVCAR-3, 72 h
Description: as §1, §2

[23] = system: PC-3 prostate carcinoma cells; assay: XTT dye binding cytotoxicity assay, PC-3; format: cell-based; conditions: Homo sapiens, 72 h
Description: as §1, §2

[24] = system: SK-N-SH neuroblastoma cells; assay: XTT dye binding cytotoxicity assay, SK-N-SH; format: cell-based; conditions: Homo sapiens, 72 h
Description: as §1, §2

Compound: CC(=O)O[C@H]1C(=O)[C@@]2(C)[C@H]([C@H](OC(=O)c3ccccc3)[C@]3(O)C[C@H](OC(=O)[C@H](O)[C@@H](NC(=O)c4ccccc4)c4ccccc4)C(C)=C1C3(C)C)[C@]1(OC(C)=O)CO[C@@H]1C[C@@H]2O [Compound 1, reference compound]
- IC50 [1]: 8.89 nM
- Kd (intact Molt-4 cells): 5 nM
- IC50 [2]: 0.018 nM
- IC50 (U-2511 CNS cancer cells): 15.6 nM
- IC50 [3]: 10.8 nM
- IC50 [4]: 5.79 nM
- IC50 [5]: 0.066 nM
- IC50 [6]: 615 nM
- IC50 [7]: 0.096 nM
- in vivo antitumor efficacy in words (human tumor xenografts): when taxol was administered at somewhat lower doses, its efficacy was significantly diminished
- Plasma Stability t1/2 ([8]; human plasma, 37° C., Table II): stable
- recovery ([8]; human, plasma): 95%
- dose limiting toxicity ([9]; 300 mg/m^2 /day): peripheral neuropathy
- tolerated taxol dose ([9]; 24 hour i.v. infusion every 3 weeks, with G-CSF): 250 mg/m^2
- IC50 (SK-Mel-28 melanoma cells): 524 nM
- IC50 [10]: 0.967 nM
- IC50 [11]: 1.16 nM
- dose-limiting toxicity ([12]; pediatric patients, 24 hour i.v. infusion): neurotoxicity
- dose at which dose-limiting toxicity occurred ([12]; pediatric patients, neurotoxicity): 420 mg/m^2
- recommended phase II dose ([12]; pediatric population): 350 mg/m^2 /d
- IC50 (L-1210 leukemia cells): 3.24 nM
- 50% lethality, equivalent dose ([13]; mice, four times on alternating days, approximately equivalent dose): 1,120-1,260 mg/m^2
- LD50 ([13]; mouse, in vivo): 16 to 18 mg/kg
- IC50 [14]: 584 nM
- administered radioactivity in the combined urine and feces [15]: 4-5%
- Toxicity ([16]; Table II, in vivo): high
- % survival ([16]; at end of experiments): 0-20%
- in vivo tolerance / toxicity in words ([16]; nude mice): both visual toxicity and animal weight losses were observed
- IC50 [17]: 0.66 nM
- IC50 [18]: 62 nM
- IC50 (NHDF dermal fibroblast): 765 nM
- antitumor activity, PC-3 ([19]; 1.0 mM, 400 μL i.p., established tumors): regression of established tumors
- mice surviving treatment, PC-3 ([19]; in vivo): 3 out of 8 mice
- IC50 [20]: 0.061 nM
- solubility in aqueous media [21]: low solubility
- inhibition of calcium chloride induced depolymerization of microtubules (tubulin): essentially complete inhibition of depolymerization; also recorded: suppressed by taxol
- IC50 [22]: 0.74 nM
- IC50 [23]: 1.01 nM
- IC50 [24]: 2.38 nM

From patent publication US5731334A, “Method for treating cancer using taxoid onium salt prodrugs” (priority 1995, dated 1998)
